Measurements as given in ChEMBL document CHEMBL3046669, “Insecticide resistance of the oriental fruit fly, Bactrocera dorsalis (Hendel) (Diptera: Tephritidae), in mainland China” (2011).
Converted amounts (≈) assume the structure as drawn.

Key:
Assay type in all cases: functional
Bactrocera dorsalis [1] = assay: Insecticidal activity against adult Bactrocera dorsalis YJ08 assessed as mortality after 24 hr; conditions: YJ08, 24 h
Bactrocera dorsalis [2] = assay: Insecticidal activity against adult Bactrocera dorsalis HK07 assessed as mortality after 24 hr; conditions: HK07, 24 h
Bactrocera dorsalis [3] = assay: Resistance ratio of LC50 for adult Bactrocera dorsalis T-R-48 to LC50 for adult Bactrocera dorsalis
Bactrocera dorsalis [4] = assay: Resistance ratio of LC50 for adult Bactrocera dorsalis HY07 to LC50 for adult Bactrocera dorsalis after 24 hr
Bactrocera dorsalis [5] = assay: Resistance ratio of LC50 for adult Bactrocera dorsalis YJ07 to LC50 for adult Bactrocera dorsalis after 24 hr
Bactrocera dorsalis [6] = assay: Resistance ratio of LC50 for adult Bactrocera dorsalis NN08 to LC50 for adult Bactrocera dorsalis after 24 hr
Bactrocera dorsalis [7] = assay: Insecticidal activity against adult Bactrocera dorsalis T-R-45 assessed as mortality
Bactrocera dorsalis [8] = assay: Insecticidal activity against adult Bactrocera dorsalis QY07 assessed as mortality after 24 hr; conditions: QY07, 24 h
Bactrocera dorsalis [9] = assay: Resistance ratio of LC50 for adult Bactrocera dorsalis ZJ07 to LC50 for adult Bactrocera dorsalis after 24 hr
Bactrocera dorsalis [10] = assay: Insecticidal activity against adult Bactrocera dorsalis GZ08 assessed as mortality after 24 hr; conditions: GZ08, 24 h
Bactrocera dorsalis [11] = assay: Insecticidal activity against adult Bactrocera dorsalis GZ07 assessed as mortality after 24 hr; conditions: GZ07, 24 h
Bactrocera dorsalis [12] = assay: Resistance ratio of LC50 for adult Bactrocera dorsalis FZ07 to LC50 for adult Bactrocera dorsalis after 24 hr
Bactrocera dorsalis [13] = assay: Resistance ratio of LC50 for adult Bactrocera dorsalis HK07 to LC50 for adult Bactrocera dorsalis after 24 hr
Bactrocera dorsalis [14] = assay: Resistance ratio of LC50 for adult Bactrocera dorsalis MM07 to LC50 for adult Bactrocera dorsalis after 24 hr
Bactrocera dorsalis [15] = assay: Insecticidal activity against adult Bactrocera dorsalis ZJ07 assessed as mortality after 24 hr; conditions: ZJ07, 24 h
Bactrocera dorsalis [16] = assay: Resistance ratio of LC50 for adult Bactrocera dorsalis CS07 to LC50 for adult Bactrocera dorsalis after 24 hr
Bactrocera dorsalis [17] = assay: Insecticidal activity against adult Bactrocera dorsalis CS08 assessed as mortality after 24 hr; conditions: CS08, 24 h
Bactrocera dorsalis [18] = assay: Resistance ratio of LC50 for adult Bactrocera dorsalis FZ08 to LC50 for adult Bactrocera dorsalis after 24 hr
Bactrocera dorsalis [19] = assay: Resistance ratio of LC50 for adult Bactrocera dorsalis QY07 to LC50 for adult Bactrocera dorsalis after 24 hr
Bactrocera dorsalis [20] = assay: Resistance ratio of LC50 for adult Bactrocera dorsalis HZ08 to LC50 for adult Bactrocera dorsalis after 24 hr
Bactrocera dorsalis [21] = assay: Insecticidal activity against adult Bactrocera dorsalis MM08 assessed as mortality after 24 hr; conditions: MM08, 24 h
Bactrocera dorsalis [22] = assay: Insecticidal activity against adult Bactrocera dorsalis HZ08 assessed as mortality after 24 hr; conditions: HZ08, 24 h
Bactrocera dorsalis [23] = assay: Insecticidal activity against adult Bactrocera dorsalis FZ08 assessed as mortality after 24 hr; conditions: FZ08, 24 h
Bactrocera dorsalis [24] = assay: Insecticidal activity against adult Bactrocera dorsalis WX08 assessed as mortality after 24 hr; conditions: WX08, 24 h
Bactrocera dorsalis [25] = assay: Resistance ratio of LC50 for adult Bactrocera dorsalis CH08 to LC50 for adult Bactrocera dorsalis after 24 hr
Bactrocera dorsalis [26] = assay: Insecticidal activity against adult Bactrocera dorsalis NN07 assessed as mortality after 24 hr; conditions: NN07, 24 h
Bactrocera dorsalis [27] = assay: Insecticidal activity against adult Bactrocera dorsalis HZ07 assessed as mortality after 24 hr; conditions: HZ07, 24 h
Bactrocera dorsalis [28] = assay: Resistance ratio of LC50 for adult Bactrocera dorsalis T-R-45 to LC50 for adult Bactrocera dorsalis
Bactrocera dorsalis [29] = assay: Insecticidal activity against adult Bactrocera dorsalis T-R-48 assessed as mortality
Bactrocera dorsalis [30] = assay: Insecticidal activity against adult Bactrocera dorsalis CS07 assessed as mortality after 24 hr; conditions: CS07, 24 h
Bactrocera dorsalis [31] = assay: Insecticidal activity against adult Bactrocera dorsalis NN08 assessed as mortality after 24 hr; conditions: NN08, 24 h
Bactrocera dorsalis [32] = assay: Resistance ratio of LC50 for adult Bactrocera dorsalis NN07 to LC50 for adult Bactrocera dorsalis after 24 hr
Bactrocera dorsalis [33] = assay: Resistance ratio of LC50 for adult Bactrocera dorsalis GZ08 to LC50 for adult Bactrocera dorsalis after 24 hr
Bactrocera dorsalis [34] = assay: Resistance ratio of LC50 for adult Bactrocera dorsalis HY08 to LC50 for adult Bactrocera dorsalis after 24 hr
Bactrocera dorsalis [35] = assay: Resistance ratio of LC50 for adult Bactrocera dorsalis GZ07 to LC50 for adult Bactrocera dorsalis after 24 hr
Bactrocera dorsalis [36] = assay: Insecticidal activity against adult Bactrocera dorsalis CH08 assessed as mortality after 24 hr; conditions: CH08, 24 h
Bactrocera dorsalis [37] = assay: Insecticidal activity against adult Bactrocera dorsalis CH07 assessed as mortality after 24 hr; conditions: CH07, 24 h
Bactrocera dorsalis [38] = assay: Resistance ratio of LC50 for adult Bactrocera dorsalis HZ07 to LC50 for adult Bactrocera dorsalis after 24 hr
Bactrocera dorsalis [39] = assay: Insecticidal activity against adult Bactrocera dorsalis MM07 assessed as mortality after 24 hr; conditions: MM07, 24 h
Bactrocera dorsalis [40] = assay: Resistance ratio of LC50 for adult Bactrocera dorsalis CS08 to LC50 for adult Bactrocera dorsalis after 24 hr
Bactrocera dorsalis [41] = assay: Insecticidal activity against adult Bactrocera dorsalis assessed as mortality after 24 hr
Bactrocera dorsalis [42] = assay: Insecticidal activity against adult Bactrocera dorsalis HY08 assessed as mortality after 24 hr; conditions: HY08, 24 h
Bactrocera dorsalis [43] = assay: Insecticidal activity against adult Bactrocera dorsalis HY07 assessed as mortality after 24 hr; conditions: HY07, 24 h
Bactrocera dorsalis [44] = assay: Insecticidal activity against adult Bactrocera dorsalis YJ07 assessed as mortality after 24 hr; conditions: YJ07, 24 h
Bactrocera dorsalis [45] = assay: Insecticidal activity against adult Bactrocera dorsalis FZ07 assessed as mortality after 24 hr; conditions: FZ07, 24 h
Bactrocera dorsalis [46] = assay: Insecticidal activity against adult Bactrocera dorsalis QY08 assessed as mortality after 24 hr; conditions: QY08, 24 h
Bactrocera dorsalis [47] = assay: Resistance ratio of LC50 for adult Bactrocera dorsalis CH07 to LC50 for adult Bactrocera dorsalis after 24 hr
Bactrocera dorsalis [48] = assay: Resistance ratio of LC50 for adult Bactrocera dorsalis YJ08 to LC50 for adult Bactrocera dorsalis after 24 hr
Bactrocera dorsalis [49] = assay: Insecticidal activity against adult Bactrocera dorsalis WX07 assessed as mortality after 24 hr; conditions: WX07, 24 h
Bactrocera dorsalis [50] = assay: Resistance ratio of LC50 for adult Bactrocera dorsalis HK08 to LC50 for adult Bactrocera dorsalis after 24 hr
Bactrocera dorsalis [51] = assay: Resistance ratio of LC50 for adult Bactrocera dorsalis QY08 to LC50 for adult Bactrocera dorsalis after 24 hr
Bactrocera dorsalis [52] = assay: Resistance ratio of LC50 for adult Bactrocera dorsalis WX08 to LC50 for adult Bactrocera dorsalis after 24 hr
Bactrocera dorsalis [53] = assay: Resistance ratio of LC50 for adult Bactrocera dorsalis MM08 to LC50 for adult Bactrocera dorsalis after 24 hr
Bactrocera dorsalis [54] = assay: Insecticidal activity against adult Bactrocera dorsalis HK08 assessed as mortality after 24 hr; conditions: HK08, 24 h
Bactrocera dorsalis [55] = assay: Resistance ratio of LC50 for adult Bactrocera dorsalis WX07 to LC50 for adult Bactrocera dorsalis after 24 hr

COP(=O)(OC)C(O)C(Cl)(Cl)Cl (stereo not drawn) [TRICHLORFON]
LC50 (Bactrocera dorsalis [1]): 8.38 µg/mL (≈ 32.6 µM)
LC50 (Bactrocera dorsalis [2]): 14.1 µg/mL (≈ 54.7 µM)
RatioLC50 (Bactrocera dorsalis [3]): 71.58
RatioLC50 (Bactrocera dorsalis [4]): 25.79
RatioLC50 (Bactrocera dorsalis [5]): 5.25
RatioLC50 (Bactrocera dorsalis [6]): 7.39
LC90 (Bactrocera dorsalis [7]): 322.86 µg/mL (≈ 1250 µM)
LC50 (Bactrocera dorsalis [7]; Bactrocera dorsalis, T-R-45): 93.9 µg/mL (≈ 365 µM)
LC50 (Bactrocera dorsalis [8]): 18.5 µg/mL (≈ 71.9 µM)
RatioLC50 (Bactrocera dorsalis [9]): 18.51
LC50 (Bactrocera dorsalis [10]): 14.2 µg/mL (≈ 55.3 µM)
LC50 (Bactrocera dorsalis [11]): 31.8 µg/mL (≈ 123 µM)
RatioLC50 (Bactrocera dorsalis [12]): 12.32
RatioLC50 (Bactrocera dorsalis [13]): 8.77
RatioLC50 (Bactrocera dorsalis [14]): 17.78
LC50 (Bactrocera dorsalis [15]): 29.7 µg/mL (≈ 115 µM)
RatioLC50 (Bactrocera dorsalis [16]): 16.96
LC50 (Bactrocera dorsalis [17]): 28.2 µg/mL (≈ 110 µM)
RatioLC50 (Bactrocera dorsalis [18]): 20.2
RatioLC50 (Bactrocera dorsalis [19]): 11.53
RatioLC50 (Bactrocera dorsalis [20]): 1.51
LC50 (Bactrocera dorsalis [21]): 113 µg/mL (≈ 439 µM)
LC50 (Bactrocera dorsalis [22]): 2.43 µg/mL (≈ 9.44 µM)
LC50 (Bactrocera dorsalis [23]): 32.4 µg/mL (≈ 126 µM)
LC50 (Bactrocera dorsalis [24]): 22.7 µg/mL (≈ 88.1 µM)
RatioLC50 (Bactrocera dorsalis [25]): 17.91
LC50 (Bactrocera dorsalis [26]): 25.1 µg/mL (≈ 97.4 µM)
LC50 (Bactrocera dorsalis [27]): 26.8 µg/mL (≈ 104 µM)
RatioLC50 (Bactrocera dorsalis [28]): 58.34
LC90 (Bactrocera dorsalis [29]): 635.27 µg/mL (≈ 2470 µM)
LC50 (Bactrocera dorsalis [29]; Bactrocera dorsalis, T-R-48): 115 µg/mL (≈ 448 µM)
LC50 (Bactrocera dorsalis [30]): 27.2 µg/mL (≈ 106 µM)
LC50 (Bactrocera dorsalis [31]): 11.9 µg/mL (≈ 46.1 µM)
RatioLC50 (Bactrocera dorsalis [32]): 15.62
RatioLC50 (Bactrocera dorsalis [33]): 8.87
RatioLC50 (Bactrocera dorsalis [34]): 21.19
RatioLC50 (Bactrocera dorsalis [35]): 19.8
LC50 (Bactrocera dorsalis [36]): 28.7 µg/mL (≈ 112 µM)
LC50 (Bactrocera dorsalis [37]): 20.4 µg/mL (≈ 79.3 µM)
RatioLC50 (Bactrocera dorsalis [38]): 16.72
LC50 (Bactrocera dorsalis [39]): 28.5 µg/mL (≈ 111 µM)
RatioLC50 (Bactrocera dorsalis [40]): 17.56
LC90 (Bactrocera dorsalis [41]): 2.64 µg/mL (≈ 10.3 µM)
LC50 (Bactrocera dorsalis [41]; Bactrocera dorsalis, 24 h): 1.61 µg/mL (≈ 6.25 µM)
LC50 (Bactrocera dorsalis [42]): 34 µg/mL (≈ 132 µM)
LC50 (Bactrocera dorsalis [43]): 41.4 µg/mL (≈ 161 µM)
LC50 (Bactrocera dorsalis [44]): 8.43 µg/mL (≈ 32.7 µM)
LC50 (Bactrocera dorsalis [45]): 19.8 µg/mL (≈ 76.8 µM)
LC50 (Bactrocera dorsalis [46]): 11.8 µg/mL (≈ 45.8 µM)
RatioLC50 (Bactrocera dorsalis [47]): 12.71
RatioLC50 (Bactrocera dorsalis [48]): 5.22
LC50 (Bactrocera dorsalis [49]): 31.2 µg/mL (≈ 121 µM)
RatioLC50 (Bactrocera dorsalis [50]): 1.37
RatioLC50 (Bactrocera dorsalis [51]): 7.34
RatioLC50 (Bactrocera dorsalis [52]): 14.13
RatioLC50 (Bactrocera dorsalis [53]): 70.45
LC50 (Bactrocera dorsalis [54]): 2.21 µg/mL (≈ 8.58 µM)
RatioLC50 (Bactrocera dorsalis [55]): 19.46
